Experimental data reported in patent US9617251B2, “Indanylaminopyridylcyclopropanecarboxylic acids, pharmaceutical compositions and uses thereof” (BOEHRINGER INGELHEIM INTERNATIONAL GMBH, priority 2015, dated 2017).
Converted amounts (≈) assume the structure as drawn.

Experiments:
[1] = target: T1, cytochrome P450 2C8-isoenzyme (Homo sapiens, UniProt P10632); test: Inhibition of CYP-2C8 (deethylation of amodiaquine, human liver microsomes); assay type: in vitro ADME; conditions: CYP-2C8, human liver microsomes, amodiaquine 1 μM, 37° C.
T1 construct: from tissue; host or cells: human liver microsomes
T1 sequence (P10632 1-490): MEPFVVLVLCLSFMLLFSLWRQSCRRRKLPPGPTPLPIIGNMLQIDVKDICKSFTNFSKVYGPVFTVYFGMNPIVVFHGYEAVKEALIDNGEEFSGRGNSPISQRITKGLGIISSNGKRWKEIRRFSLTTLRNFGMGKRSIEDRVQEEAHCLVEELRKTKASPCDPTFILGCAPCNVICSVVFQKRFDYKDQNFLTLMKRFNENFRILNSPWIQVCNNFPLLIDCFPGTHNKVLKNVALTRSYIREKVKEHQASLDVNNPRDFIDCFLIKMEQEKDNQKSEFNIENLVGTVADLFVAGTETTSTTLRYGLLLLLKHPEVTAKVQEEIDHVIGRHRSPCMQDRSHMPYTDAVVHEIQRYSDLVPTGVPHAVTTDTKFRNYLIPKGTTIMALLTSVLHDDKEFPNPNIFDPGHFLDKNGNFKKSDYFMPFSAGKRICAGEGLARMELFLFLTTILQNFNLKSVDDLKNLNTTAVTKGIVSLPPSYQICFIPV
Method: The inhibition of cytochrome P450 2C8-isoenzyme catalyzed deethylation of amodiaquine by the test compound is assayed at 37° C. with human liver microsomes. All assays are carried out on a robotic system in 96 well plates. The final incubation volume contains TRIS buffer (0.1 M), MgCl2 (5 mM), human liver microsomes (0.05 mg/mL), amodiaquine (1 μM) and the test compound at five different concentrations or no compound (high control) in duplicate (e.g. highest concentration 10-50 μM with subsequent serial 1:4 dilutions). Following a short preincubation period, reactions are started with the cofactor (NADPH, 1 mM) and stopped by cooling the incubation down to 8° C. and subsequently by addition of one volume of acetonitrile. An internal standard solution—the stable isotope d5-desethylamodiaquine—is added after quenching of incubations. Peak area analyte (=metabolite formed) and internal standard is determined by LC-MS/MS. The resulting peak area ratio analyte to internal standard in these incubations is compared to a control activity containing no test compound. Within each of the assay runs, the IC50 of a positive control inhibitor (Montelukast) is determined. Experimental IC50 values are calculated by least square regression according to the following equation: % control activity=(100% control activity/(1+(I/IC50)S))−B with I=inhibitor concentration; S=slope factor; B=background activity (lower plateau of the inhibition curve)
(§1) If the inhibition of the reaction is already >50% at the lowest concentration of the test compound, the IC50 is assigned “<lowest concentration tested” (usually <0.4 μM). If the inhibition of the reaction is still <50% at the highest concentration of the test compound, the IC50 is assigned “>highest concentration tested” (usually >50 μM).

human GPR40 receptor = human GPR40 receptor (Homo sapiens, UniProt O14842); test: IP1 accumulation measurements using the IPOne assay system (1321N1 cells stably expressing human GPR40 receptor); assay type: cell-based; conditions: 1321N1 cells expressing human GPR40, 1 h stimulation at 37° C.
Sequence of human GPR40 receptor (O14842 whole entry): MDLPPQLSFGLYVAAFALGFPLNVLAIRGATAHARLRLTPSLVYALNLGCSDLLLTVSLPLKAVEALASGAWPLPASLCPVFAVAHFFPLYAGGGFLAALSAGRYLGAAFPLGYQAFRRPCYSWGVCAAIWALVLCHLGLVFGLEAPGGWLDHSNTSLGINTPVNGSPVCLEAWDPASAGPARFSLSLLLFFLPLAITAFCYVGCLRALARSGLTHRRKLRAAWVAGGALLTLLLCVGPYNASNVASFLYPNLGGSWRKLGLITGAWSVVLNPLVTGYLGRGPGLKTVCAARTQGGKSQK
Method: IP1 accumulation measurements using the IPOne assay system—1321N1 cells stably expressing human GPR40 receptor (Euroscreen, Belgium) are seeded 24 h before the assay in white 384-well plates in culture medium containing 10% FCS, 1% Na-Pyruvate and 400 μg/mL G418. IP1 is assayed according to the manufacturer's description (Cisbio Bioassays, France). In brief, the assay is started by substitution of the culture medium by stimulation buffer (Hepes 10 mM, CaCl2 1 mM, MgCl2 0.5 mM, KCl 4.2 mM, NaCl 146 mM, glucose 5.5 mM and LiCl 50 mM, pH 7.4). Cells are stimulated for 1 h at 37° C., 5% CO2 by addition of the compounds that are diluted in stimulation buffer containing LiCl. Assays are stopped by adding HTRF-conjugates (IP1-d2 and Anti-IP1 cryptate Tb) and lysis buffer, provided by the manufacturer. After an incubation time of 1 h at room temperature plates are measured using an EnVision™, Perkin Elmer. The obtained fluorescence ratios at 665/615 […] are then used to calculate the pEC50 values using Assay Explorer 3.3 Software (Accelrys, Inc.) by interpolation using an IP1 reference curve and subsequent sigmoidal curve fitting allowing for a variable hill slope.

[2] = Chemical stability: degradation kinetics in acidic aqueous media (pH ca. 1.2), HPLC recovery; assay type: physicochemical; conditions: pH value of ca. 1.2 (acetonitrile/0.1 M aqueous HCl 2:3), 37° C.
Method: Degradation kinetics is used to simulate chemical stability of compounds in the acidic part of the gastro intestinal tract. […] Their application as medical drugs to treat human diseases is therefore less restricted and troublesome.
The chemical stability of the compounds of the invention at pH value of ca. 1.2 is determined as follows:
Compound is dissolved in an HPLC vial either in a mixture of acetonitrile/0.1 M aqueous HCl (2:3; pH ca. 1.2) or in a mixture of acetonitrile/McIlvaine buffer pH 7.4 (2:3) to get a concentration of approximately 0.25 mg/ml. The vial was then transferred into an HPLC autosampler system and maintained at a temperature of 37° C. A first sample is taken and injected immediately into a standard HPLC system with a UV DAD detector. Further samples are injected after 2, 4, 6, 8 and 10 hours. Amount of degraded compound is measured by determining the recovery rate of compound [%] for each injection using an HPLC standard gradient method. Therefore the peak area of the main peak for the first injection (AUt0) is determined and set as 100%. Peak area of the main peak is determined also for the further injections (AUtn, n=2, 4, 6, 8, 10) and expressed as fraction of (AUt0)/(AUtn, n=2, 4, 6, 8, 10) [%].

[3] = target: T2, cytochrome P450 2C9-isoenzyme (Homo sapiens, UniProt P11712); test: Inhibition of CYP-2C9 (hydroxylation of diclofenac, human liver microsomes); assay type: in vitro ADME; conditions: CYP-2C9, human liver microsomes, diclofenac 10 μM, 37° C.
T2 construct: from tissue; host or cells: human liver microsomes
T2 sequence (P11712 whole entry): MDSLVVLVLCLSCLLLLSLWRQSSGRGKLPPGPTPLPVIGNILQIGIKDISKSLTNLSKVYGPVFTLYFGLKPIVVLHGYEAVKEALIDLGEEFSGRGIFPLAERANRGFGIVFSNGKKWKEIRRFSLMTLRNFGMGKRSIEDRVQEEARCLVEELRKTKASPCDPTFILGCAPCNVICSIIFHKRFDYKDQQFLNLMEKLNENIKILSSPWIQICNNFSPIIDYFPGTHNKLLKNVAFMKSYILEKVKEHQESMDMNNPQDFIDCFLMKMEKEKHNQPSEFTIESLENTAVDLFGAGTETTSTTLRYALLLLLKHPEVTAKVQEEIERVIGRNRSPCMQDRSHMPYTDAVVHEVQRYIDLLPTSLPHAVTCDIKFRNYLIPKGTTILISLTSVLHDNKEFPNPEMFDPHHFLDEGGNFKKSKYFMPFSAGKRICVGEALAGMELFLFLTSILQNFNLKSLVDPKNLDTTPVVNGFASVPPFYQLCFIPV
Method: The inhibition of cytochrome P450 2C9-isoenzyme catalyzed hydroxylation of diclofenac by the test compound is assayed at 37° C. with human liver microsomes. All assays are carried out on a robotic system in 96 well plates. The final incubation volume contains TRIS buffer (0.1 M), MgCl2 (5 mM), human liver microsomes (0.1 mg/mL), diclofenac (10 μM) and the test compound at five different concentrations or no compound (high control) in duplicate (e.g., highest concentration 10-50 μM with subsequent serial 1:4 dilutions). Following a short preincubation period, reactions are started with the cofactor (NADPH, 1 mM) and stopped by cooling the incubation down to 8° C. and subsequently by addition of one volume of acetonitrile. An internal standard solution—the stable isotope ^13C6-hydroxydiclofenac—is added after quenching of incubations. Peak area analyte (=metabolite formed) and internal standard is determined by LC-MS/MS. The resulting peak area ratio analyte to internal standard in these incubations is compared to a control activity containing no test compound. Within each of the assay runs, the IC50 of a positive control inhibitor (sulfaphenazole) is determined. Experimental IC50 values are calculated by least square regression according to the following equation: % control activity=(100% control activity/(1+(I/IC50)S))−B with I=inhibitor concentration; S=slope factor; B=background activity (lower plateau of the inhibition curve)
as §1

[4] = Aqueous solubility in buffer vs acetonitrile/water (1/1), LC-UV; assay type: physicochemical; conditions: kinetic from dmso stock, buffer pH 2.2, 24 h shaking, 2.5% DMSO
Method: The aqueous solubility of the compounds of the invention is determined by comparing the amount dissolved in buffer to the amount in an acetonitrile/water (1/1) solution. Starting from a 10 mM DMSO stock solution aliquots are diluted with acetonitrile/water (1/1) or buffer, respectively. After 24 h of shaking, the solutions are filtrated and analyzed by LC-UV. The amount dissolved in buffer is compared to the amount in the acetonitrile solution.
Solubility is usually being measured from 0.001 to 0.125 mg/mL at a DMSO concentration of 2.5%. If more than 90% of the compound is dissolved in buffer, the value is marked with “>”.

Row | Structure (SMILES) | IC50 [1] [µM] | EC50 (human GPR40 receptor) [µM] | Amount of degradation after 2 h [2] [%] | IC50 [3] [µM] | solubility at 24 h [4] [µg/mL]
1 | Cc1cc(-c2nnn(C)n2)cc(C)c1-c1cccc2c1CC[C@H]2Nc1ccc([C@H]2C[C@@H]2C(=O)O)cn1 [Example 1, (1S,2S)-2-(6-{(R)-4-[2,6-Dimethyl-4-(2-methyl-2H-tetrazol-5-yl)-phenyl]-indan-1-ylamino}-pyridin-3-yl)-cyclopropanecarboxylic acid] | 16 | 0.007 | <0.5 | 48 | 67 (≈ 139 µM)
2 | Cc1cc(OCCC(C)(C)O)cc(C)c1-c1cccc2c1CC[C@H]2Nc1ccc([C@H]2C[C@@H]2C(=O)O)cn1 [Example 2, (1S,2S)-2-(6-{(R)-4-[4-(3-Hydroxy-3-methyl-butoxy)-2,6-dimethyl-phenyl]-indan-1-ylamino}-pyridin-3-yl)-cyclopropanecarboxylic acid] | 30 | 0.011 | <0.5 | > 50 | 83 (≈ 166 µM)
3 | Cc1cc(OCCC(C)(C)O)cc(C)c1-c1ccc(F)c2c1CC[C@H]2Nc1ccc([C@H]2C[C@@H]2C(=O)O)cn1 [Example 4, (1S,2S)-2-(6-{(R)-7-Fluoro-4-[4-(3-hydroxy-3-methyl-butoxy)-2,6-dimethyl-phenyl]-indan-1-ylamino}-pyridin-3-yl)-cyclopropanecarboxylic acid] | 46 | 0.008 | <0.5 | > 50 | 89 (≈ 172 µM)
4 | COc1cc(C)c(-c2ccc(F)c3c2CC[C@H]3Nc2ccc([C@H]3C[C@@H]3C(=O)O)cn2)c(C)c1 [Example 19] | 26 | 0.016 | <1.0 | 35 | 67 (≈ 150 µM)
5 | Cc1cc(C#N)cc(C)c1-c1ccc(F)c2c1CC[C@H]2Nc1ccc([C@H]2C[C@@H]2C(=O)O)cn1 [Example 20] | 24 | 0.018 | <0.5 | 33 | 66 (≈ 149 µM)
6 | Cc1cc(C(N)=O)cc(C)c1-c1ccc(F)c2c1CC[C@H]2Nc1ccc([C@H]2C[C@@H]2C(=O)O)cn1 [Example 21] | > 50 | 0.06 | <0.5 | > 50 | 83 (≈ 181 µM)
7 | CCc1cccc(CC)c1-c1ccc(F)c2c1CC[C@H]2Nc1ccc([C@H]2C[C@@H]2C(=O)O)cn1 [Example 23] | 11 | 0.005 | <0.5 | 15 | 75 (≈ 169 µM)
8 | Cc1nc(-c2cc(C)c(-c3ccc(F)c4c3CC[C@H]4Nc3ccc([C@H]4C[C@@H]4C(=O)O)cn3)c(C)c2)no1 [Example 26] | 35 | 0.004 | <0.5 | > 50 | 65 (≈ 130 µM)
9 | Cc1cc(-c2ccnn2C)cc(C)c1-c1ccc(F)c2c1CC[C@H]2Nc1ccc([C@H]2C[C@@H]2C(=O)O)cn1 [Example 31] | 9 | 0.031 | <0.5 | 27 | 93 (≈ 187 µM)
10 | Cc1cc(OCC(C)(C)C#N)cc(C)c1-c1ccc(F)c2c1CC[C@H]2Nc1ccc([C@H]2C[C@@H]2C(=O)O)cn1 [Example 35] | 18 | 0.023 | <0.5 | 34 | 59 (≈ 115 µM)
11 | Cc1cc(-c2ccn(C)c(=O)c2)cc(C)c1-c1ccc(F)c2c1CC[C@H]2Nc1ccc([C@H]2C[C@@H]2C(=O)O)cn1 [Example 36] | 10 | 0.006 | <0.5 | > 50 | 107 (≈ 204 µM)
12 | Cc1cc(O)cc(C)c1-c1ccc(F)c2c1CC[C@H]2Nc1ccc([C@H]2C[C@@H]2C(=O)O)cn1 [Example 41] | 34 | 0.033 | <1.5 | > 50 | 103 (≈ 238 µM)
13 | N#CC1(c2ccccc2-c2ccc(F)c3c2CC[C@H]3Nc2ccc([C@H]3C[C@@H]3C(=O)O)cn2)CC1 [Example 46] | 32 | 0.629 | <0.5 | 9 | 85 (≈ 187 µM)
14 | CC(C)c1ccccc1-c1ccc(F)c2c1CC[C@H]2Nc1ccc([C@H]2C[C@@H]2C(=O)O)cn1 [Example 47] | 12 | 0.026 | <0.5 | 14 | 72 (≈ 167 µM)
15 | O=C(O)[C@H]1C[C@@H]1c1ccc(N[C@@H]2CCc3c(-c4c(Cl)cccc4Cl)ccc(F)c32)nc1 [Example 50] | 21 | 0.013 | <1.0 | 22 | 69 (≈ 151 µM)
